Assay results as given in paper PMC12663298, “Sibiriline, a novel dual inhibitor of necroptosis and ferroptosis, prevents RIPK1 kinase activity and (phospho)lipid peroxidation as a potential therapeutic strategy” (Cell Death Discovery, 2025).

How the values were obtained:
Assay type in all cases: biochemical
KIT = KIT (Homo sapiens, UniProt P10721); assay: enzymatic kinase assay (Eurofins) at KM,ATP
JAK2 = JAK2 (Homo sapiens, UniProt O60674); assay: enzymatic kinase assay (Eurofins) at KM,ATP
ABL1 = ABL1 (Homo sapiens, UniProt P00519); assay: ADP-Glo kinase assay at KM,ATP
DRAK2 = molecular target: T1, DRAK2 (Homo sapiens, UniProt O94768); assay: enzymatic kinase assay (Eurofins) at KM,ATP
T1 construct: gene STK17B
T1 sequence (O94768 1-372): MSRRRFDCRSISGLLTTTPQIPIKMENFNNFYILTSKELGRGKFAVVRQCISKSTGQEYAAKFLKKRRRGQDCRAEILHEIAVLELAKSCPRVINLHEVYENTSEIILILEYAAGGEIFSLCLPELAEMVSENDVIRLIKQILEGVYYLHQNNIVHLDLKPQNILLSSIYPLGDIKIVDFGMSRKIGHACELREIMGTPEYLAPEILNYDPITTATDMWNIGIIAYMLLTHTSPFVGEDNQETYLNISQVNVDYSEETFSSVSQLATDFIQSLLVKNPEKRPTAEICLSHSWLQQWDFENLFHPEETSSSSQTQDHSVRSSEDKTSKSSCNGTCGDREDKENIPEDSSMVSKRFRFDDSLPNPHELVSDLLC

PDGFR-β = molecular target: T2, PDGFR-β (Homo sapiens, UniProt P09619); assay: enzymatic kinase assay (Eurofins) at KM,ATP
T2 construct: gene PDGFRB

AURKC = molecular target: T3, AURKC (Homo sapiens, UniProt Q9UQB9); assay: enzymatic kinase assay (Eurofins) at KM,ATP
T3 sequence (Q9UQB9 1-309): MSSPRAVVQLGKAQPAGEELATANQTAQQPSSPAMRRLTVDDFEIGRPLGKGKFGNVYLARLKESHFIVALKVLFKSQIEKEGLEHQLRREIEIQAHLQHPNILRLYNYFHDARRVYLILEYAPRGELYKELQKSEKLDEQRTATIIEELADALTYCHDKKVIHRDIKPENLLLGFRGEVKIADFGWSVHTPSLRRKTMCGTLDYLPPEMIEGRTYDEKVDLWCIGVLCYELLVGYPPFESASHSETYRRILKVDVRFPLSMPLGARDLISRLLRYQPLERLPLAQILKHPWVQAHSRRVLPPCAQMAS

Sequence of ABL1 (P00519 whole entry): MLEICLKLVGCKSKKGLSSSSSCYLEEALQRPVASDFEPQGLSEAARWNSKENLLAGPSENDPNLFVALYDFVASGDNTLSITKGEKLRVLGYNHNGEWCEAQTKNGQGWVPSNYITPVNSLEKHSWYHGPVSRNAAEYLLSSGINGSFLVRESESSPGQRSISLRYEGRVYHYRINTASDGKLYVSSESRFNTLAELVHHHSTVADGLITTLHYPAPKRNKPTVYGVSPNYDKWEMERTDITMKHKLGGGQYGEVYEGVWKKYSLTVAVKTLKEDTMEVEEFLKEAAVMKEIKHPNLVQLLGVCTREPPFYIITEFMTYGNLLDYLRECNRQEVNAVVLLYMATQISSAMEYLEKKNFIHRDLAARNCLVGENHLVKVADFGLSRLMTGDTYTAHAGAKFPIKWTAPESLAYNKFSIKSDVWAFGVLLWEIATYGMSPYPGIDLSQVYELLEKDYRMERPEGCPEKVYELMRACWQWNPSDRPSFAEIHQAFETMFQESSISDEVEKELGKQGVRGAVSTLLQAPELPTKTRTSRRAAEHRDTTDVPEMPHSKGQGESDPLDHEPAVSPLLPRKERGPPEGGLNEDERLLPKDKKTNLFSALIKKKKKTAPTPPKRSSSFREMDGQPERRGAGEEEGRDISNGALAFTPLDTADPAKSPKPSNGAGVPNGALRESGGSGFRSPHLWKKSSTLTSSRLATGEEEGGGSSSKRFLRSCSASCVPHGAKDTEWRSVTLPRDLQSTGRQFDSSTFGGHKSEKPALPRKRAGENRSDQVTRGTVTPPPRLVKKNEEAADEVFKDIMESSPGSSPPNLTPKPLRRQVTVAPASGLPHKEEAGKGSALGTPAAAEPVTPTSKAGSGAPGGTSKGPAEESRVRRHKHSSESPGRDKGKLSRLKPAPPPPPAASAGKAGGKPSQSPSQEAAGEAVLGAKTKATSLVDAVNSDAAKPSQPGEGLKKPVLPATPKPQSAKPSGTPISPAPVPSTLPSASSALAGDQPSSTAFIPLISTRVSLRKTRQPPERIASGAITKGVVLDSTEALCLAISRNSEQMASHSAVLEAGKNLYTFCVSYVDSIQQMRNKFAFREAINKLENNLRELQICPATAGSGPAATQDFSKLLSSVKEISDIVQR
Sequence of JAK2 (O60674 whole entry): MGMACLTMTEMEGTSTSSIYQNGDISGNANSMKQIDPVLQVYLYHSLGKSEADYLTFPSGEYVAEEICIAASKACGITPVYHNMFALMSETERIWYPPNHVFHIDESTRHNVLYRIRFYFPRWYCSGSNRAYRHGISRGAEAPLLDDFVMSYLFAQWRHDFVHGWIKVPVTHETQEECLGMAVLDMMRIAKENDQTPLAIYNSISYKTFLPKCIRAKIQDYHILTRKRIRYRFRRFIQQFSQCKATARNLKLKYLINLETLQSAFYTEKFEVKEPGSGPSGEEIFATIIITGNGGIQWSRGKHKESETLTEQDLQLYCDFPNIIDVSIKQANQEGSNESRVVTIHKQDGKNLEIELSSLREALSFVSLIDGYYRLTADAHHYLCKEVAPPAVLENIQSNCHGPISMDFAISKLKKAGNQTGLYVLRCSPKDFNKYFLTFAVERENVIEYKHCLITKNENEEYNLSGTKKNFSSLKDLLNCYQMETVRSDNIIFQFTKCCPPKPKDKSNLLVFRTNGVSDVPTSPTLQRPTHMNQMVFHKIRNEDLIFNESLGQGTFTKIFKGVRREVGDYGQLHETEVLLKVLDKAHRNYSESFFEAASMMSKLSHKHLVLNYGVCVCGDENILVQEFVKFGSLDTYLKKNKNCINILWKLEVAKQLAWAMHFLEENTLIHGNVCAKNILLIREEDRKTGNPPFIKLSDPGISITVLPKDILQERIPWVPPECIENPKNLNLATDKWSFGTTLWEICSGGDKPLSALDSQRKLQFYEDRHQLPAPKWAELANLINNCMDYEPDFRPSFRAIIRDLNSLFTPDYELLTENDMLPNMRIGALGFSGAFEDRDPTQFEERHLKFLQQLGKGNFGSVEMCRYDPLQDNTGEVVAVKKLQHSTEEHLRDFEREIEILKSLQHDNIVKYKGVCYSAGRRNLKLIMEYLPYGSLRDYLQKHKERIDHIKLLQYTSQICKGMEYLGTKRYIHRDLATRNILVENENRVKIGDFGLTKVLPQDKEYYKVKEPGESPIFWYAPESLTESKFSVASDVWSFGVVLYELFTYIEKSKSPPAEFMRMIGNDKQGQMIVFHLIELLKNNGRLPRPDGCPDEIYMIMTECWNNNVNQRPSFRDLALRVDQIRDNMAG
T2 sequence (P09619 33-1106): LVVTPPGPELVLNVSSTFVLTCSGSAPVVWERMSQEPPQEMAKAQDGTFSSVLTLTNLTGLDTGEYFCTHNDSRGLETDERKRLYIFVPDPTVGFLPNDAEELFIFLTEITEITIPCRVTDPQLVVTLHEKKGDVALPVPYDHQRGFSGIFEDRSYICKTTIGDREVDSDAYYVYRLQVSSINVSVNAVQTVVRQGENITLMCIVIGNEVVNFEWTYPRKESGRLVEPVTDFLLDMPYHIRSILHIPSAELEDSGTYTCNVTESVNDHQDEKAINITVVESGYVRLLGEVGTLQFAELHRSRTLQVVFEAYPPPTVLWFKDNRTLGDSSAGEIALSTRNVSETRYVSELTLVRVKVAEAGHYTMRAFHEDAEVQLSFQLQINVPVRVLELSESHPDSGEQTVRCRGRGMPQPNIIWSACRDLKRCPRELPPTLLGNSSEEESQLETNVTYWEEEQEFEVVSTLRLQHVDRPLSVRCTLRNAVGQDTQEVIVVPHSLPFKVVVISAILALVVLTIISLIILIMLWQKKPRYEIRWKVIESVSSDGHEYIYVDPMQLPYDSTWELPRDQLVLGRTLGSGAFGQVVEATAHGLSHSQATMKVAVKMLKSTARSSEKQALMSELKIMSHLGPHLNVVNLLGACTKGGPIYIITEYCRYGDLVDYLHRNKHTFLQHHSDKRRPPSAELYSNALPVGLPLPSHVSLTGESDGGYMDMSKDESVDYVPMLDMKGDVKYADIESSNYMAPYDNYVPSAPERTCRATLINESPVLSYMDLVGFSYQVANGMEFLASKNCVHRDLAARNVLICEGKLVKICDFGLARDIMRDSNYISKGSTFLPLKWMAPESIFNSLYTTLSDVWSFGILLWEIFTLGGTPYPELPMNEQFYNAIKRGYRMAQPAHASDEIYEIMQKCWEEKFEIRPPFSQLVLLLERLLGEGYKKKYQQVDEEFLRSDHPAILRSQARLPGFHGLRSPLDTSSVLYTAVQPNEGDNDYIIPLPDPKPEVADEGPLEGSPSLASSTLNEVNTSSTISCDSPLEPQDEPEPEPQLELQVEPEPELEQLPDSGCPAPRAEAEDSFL
Sequence of KIT (P10721 26-976): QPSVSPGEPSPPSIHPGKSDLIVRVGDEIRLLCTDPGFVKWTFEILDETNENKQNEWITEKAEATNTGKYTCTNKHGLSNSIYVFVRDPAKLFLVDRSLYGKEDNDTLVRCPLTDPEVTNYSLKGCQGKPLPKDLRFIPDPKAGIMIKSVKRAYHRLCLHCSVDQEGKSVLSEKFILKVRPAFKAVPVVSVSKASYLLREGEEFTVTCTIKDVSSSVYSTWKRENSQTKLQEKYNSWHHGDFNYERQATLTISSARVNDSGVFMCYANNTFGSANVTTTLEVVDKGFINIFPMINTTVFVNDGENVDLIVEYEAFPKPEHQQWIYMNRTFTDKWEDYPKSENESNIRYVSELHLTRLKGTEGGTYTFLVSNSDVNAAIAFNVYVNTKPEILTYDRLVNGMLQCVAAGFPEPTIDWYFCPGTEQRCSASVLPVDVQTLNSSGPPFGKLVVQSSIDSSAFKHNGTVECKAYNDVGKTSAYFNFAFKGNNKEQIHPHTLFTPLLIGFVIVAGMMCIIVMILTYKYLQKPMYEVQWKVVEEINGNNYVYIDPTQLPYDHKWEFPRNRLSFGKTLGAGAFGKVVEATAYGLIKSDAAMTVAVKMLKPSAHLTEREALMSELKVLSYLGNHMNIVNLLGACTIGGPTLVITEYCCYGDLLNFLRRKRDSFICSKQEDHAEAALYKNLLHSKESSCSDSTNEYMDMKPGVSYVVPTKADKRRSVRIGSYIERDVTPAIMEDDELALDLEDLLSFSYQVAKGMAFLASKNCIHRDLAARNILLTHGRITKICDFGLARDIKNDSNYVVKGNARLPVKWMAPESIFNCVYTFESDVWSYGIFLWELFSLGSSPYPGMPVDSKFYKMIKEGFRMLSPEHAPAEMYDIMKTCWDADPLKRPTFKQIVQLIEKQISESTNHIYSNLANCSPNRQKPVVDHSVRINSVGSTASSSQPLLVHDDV

Oc1ccc(-c2cc3cccnc3[nH]2)cc1 [compound 1, 4-(1H-pyrrolo[2,3-b]pyridin-2-yl)phenol]
IC50 (KIT): All kinases tested showed inhibition in the µM range.
IC50 (JAK2): All kinases tested showed inhibition in the µM range.
IC50 (ABL1): All kinases tested showed inhibition in the µM range.
IC50 (DRAK2): All kinases tested showed inhibition in the µM range.
IC50 (PDGFR-β): All kinases tested showed inhibition in the µM range.
IC50 (AURKC): All kinases tested showed inhibition in the µM range.
